These results are taken from PubChem BioAssay (NCI).

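All cell lines were grown in 96-well plates and treated with compound for 48 hours. GI50 = concentration required for 50% inhibition of growth. At the TGI there is no net growth.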 Bounds are passed on as bounds.

Assay in all cases: NCI anticancer screen, dose series, 48 h
The subject of assay [1] is ACHN renal.
The subject of assay [2] is RXF 393 renal.
Assay [3] deals with OVCAR-3 ovarian.
The subject of assay [4] is MALME-3M melanoma.
For assay [5], the system named is KM12 colon.
The subject of assay [6] is A549 NSCLC.
The test system of assay [7] is NCI/ADR-RES ovarian.
Assay [8] deals with NCI-H460 lung.
Assay [9] relates to M14 melanoma.
Assay [10] has as its system TK-10 renal.

For `CC/C=C\C[C@H](F)C/C=C1/C(=O)C=C[C@@H]1C/C=C\CCCC(=O)OC`, the GI50 in assay [1] was 2.46 µM; in assay [2], 6.95 µM; in [3] it was 2.05 µM; in [4] it was 2.03 µM; in assay [5] it was 1.26 µM; in assay [6], 1.99 µM. Further, the GI50 is 1.71 µM in [7], 1.44 µM in assay [8], 1.65 µM in assay [9] and 7.09 µM in assay [10]. In addition, the TGI in assay [1] was determined as 9.07 µM; in [2], 14.3 µM; in [3], 6.9 µM; in assay [4], 8.7 µM; in [5] it was 3.43 µM; in assay [6], 10.5 µM. For the same compound, the TGI in assay [7] came out at 35 µM; in assay [8], 4.11 µM; in assay [9] it was 5.8 µM; in assay [10], 16.2 µM.
On to `CN(C)CCCN(CCC1CCCCC1)CCC1CCCCC1`, for which the GI50 in [1] is 4.14 µM; in [2] it was 1.47 µM; in assay [3], 2.11 µM; in assay [4] it was 1.83 µM; in assay [5], 1.78 µM; in assay [6], 2.69 µM. Further, the GI50 in assay [7] is 0.683 µM; in [8], 1.79 µM; in assay [9], 1.87 µM; in [10], 2.5 µM. For the same compound, the TGI in [1] stood at 14.4 µM; in assay [2] it was 4.24 µM; in assay [3], 5.63 µM; in assay [4], 3.77 µM; in assay [5] it was 3.44 µM; in assay [6] it was 8.5 µM. For the same compound, the TGI in assay [7] stood at 7 µM; in [8], 3.45 µM; in assay [9] it was 3.66 µM; in [10] it was 8.92 µM.
With `Cc1ccc2oc(=O)cc(/C(=C3/C=CC=N3)c3ccc[nH]3)c2c1`, the GI50 in [1] is 0.694 µM; in [2], 0.256 µM; in [3], 0.271 µM; in assay [4], 0.782 µM; in assay [5] it was 0.344 µM; in assay [6], 0.59 µM. Besides, the GI50 was 0.314 µM in [7], 0.353 µM in assay [8], 0.209 µM in assay [9] and 0.47 µM in assay [10]. Moreover, the TGI in [1] came out at 8.56 µM; in [2], 0.748 µM; in assay [3], 0.707 µM; in assay [4], 3.82 µM; in [5], 1.71 µM; in assay [6] it was 10.9 µM. Besides, the TGI in [7] came to 3.77 µM; in [8], 3.52 µM; in assay [9], 0.548 µM; in assay [10], 4.87 µM.
For `CC(=O)Nc1cc2cc(N)ccc2oc1=O`, the TGI in assay [1], in assay [2], in assay [3], in assay [4], in assay [5] and in assay [6] was greater than 100 µM each time. Moreover, the TGI in assay [7], in [8], in assay [9] and in assay [10] was greater than 100 µM throughout.
In the case of `C=C1CC2(CC(c3ccccc3Cl)OC(c3ccccc3Cl)C2)OC1=O` (stereo not given), the TGI in [1] is 9.82 µM; in [2], 4.77 µM; in [3] it was 5.96 µM; in assay [4] it was 8.19 µM; in assay [5], 7.56 µM; in assay [6], 21.2 µM. Further, the TGI in [7] came out at 8.55 µM; in assay [8], 12.6 µM; in assay [9] it was 3.39 µM; in [10] it was 9.03 µM.
For the compound `CC(=O)OC1CCC2(C)C(CCC3C2CC(=O)C2(C)C3CC(N3CC3)C2C(C)=O)C1` (stereo not given), the TGI was 29.6 µM in [1]; 42.3 µM in assay [2]; 97.3 µM in [3]; 36.5 µM in assay [4]; 43.4 µM in assay [5]; greater than 100 µM in assay [6]. Besides, the TGI in assay [7] is 94.2 µM; in assay [8] it was 33.9 µM; in assay [9] it was 51.7 µM; in [10], 45.3 µM.
As to `CC(=O)/C(=C/c1ccccc1)C(=O)CC(C)C`, the GI50 in assay [1] is 11.2 µM; in assay [2] it was 16.4 µM; in assay [3], 4.69 µM; in [4], 16.7 µM; in assay [5] it was 2.25 µM; in assay [6], 26.5 µM. For the same compound, the GI50 is 18.2 µM in [7], 17.5 µM in [8], 10.8 µM in assay [9] and 23.9 µM in [10]. In addition, the TGI in assay [1] worked out at 26.3 µM; in assay [2] it was 30.5 µM; in assay [3], 15.9 µM; in assay [4], 37.3 µM; in [5], 5.01 µM; in assay [6], 73.8 µM. In addition, the TGI in assay [7] turned out to be 58.9 µM; in [8], 38.5 µM; in [9], 24.3 µM; in assay [10], 50.5 µM.
On to `Oc1ccc(Nc2ccc3ccccc3c2)cc1`, for which the GI50 in assay [1] is 2.46 µM; in [2], 24.1 µM; in [3], 5.66 µM; in [4], 3.45 µM; in assay [5], 2.94 µM; in assay [6], 4.84 µM. The GI50 in [7] was 4.4 µM; in [8], 4.27 µM; in assay [9], 5.01 µM; in [10] it was 4.22 µM. For the same compound, the TGI in [1] is 15.6 µM; in [2], greater than 100 µM; in [3] it was 19 µM; in assay [4], 13.4 µM; in assay [5] it was 10 µM; in assay [6] it was 27 µM. In addition, the TGI in assay [7] was 67 µM; in assay [8], 15.8 µM; in assay [9], 23.4 µM; in [10], 42.3 µM.
With `CC(C)N1CCN(c2ccncc2S(=O)(=O)N2CCCCC2)CC1`, the TGI in assay [1], in [2], in [3], in [4], in assay [5] and in assay [6] was greater than 100 µM in each case. Besides, the TGI in [7], in assay [8], in assay [9] and in [10] was greater than 100 µM each time.
